Data published in US7220420B2, “Hepatitis C virus-derived peptides capable of inducing cytotoxic T lymphocyte responses” (The Scripps Research Institute, priority 1994, dated 2007).
Read-outs that look alike come from different tables or passages of the source. No end group written: not given here.

What was measured:
[1] = test system: peptide-pulsed HLA-A2 matched JY EBV-BCL cells
[2] = test system: peptide pulsed HLA-A2 matched JY EBV-BCL target cells; type: cell-based, human

With ILDSFDPLV [SEQ ID NO:42] the “peptide specific cytotoxic activity %” value ([1]; subject C-2, Exp I, 2 weeks, E/T 40) was 29%, the “peptide specific cytotoxic activity %” value ([1]; subject C-2, Exp II (PBMC collected two months after Exp I), 2 weeks, E/T 40) was 2% and the “peptide specific cytotoxic activity %” value ([1]; subject C-2, Exp II, 3 weeks, E/T 25) was 3%. The “peptide specific cytotoxic activity %” value ([1]; subject C-2, Exp II, 4 weeks, E/T 10) was 10%, the “peptide specific cytotoxic activity %” value ([1]; subject C-2, Exp II, 4 weeks, E/T 29) was 29% and the “peptide specific cytotoxic activity %” value ([1]; subject C-2, Exp II, 4 weeks, E/T 88) was 59%. The “peptide specific cytotoxic activity %” value ([1]; subject C-2, Exp II, 5 weeks, E/T 6) was 20%, the “peptide specific cytotoxic activity %” value ([1]; subject C-2, Exp II, 5 weeks, E/T 19) was 52% and the “peptide specific cytotoxic activity %” value ([1]; subject C-2, Exp II, 5 weeks, E/T 56) was 83%.
With LLFNILGGWV [SEQ ID NO:35] the “represents a CTL epitope (dagger mark)” value [2] was “LLFNILGGWV^†”.
LLCPAGHAV [SEQ ID NO:26] was tested, and the “represents a CTL epitope (dagger mark)” value ([2]; panel of 53 peptides, assay of Example 2) was “LLCPAGHAV^†” and the “lysis of target cells by peptide specific CTL lines (FIG. 2)” value ([1]; subject C-3, lines four weeks in culture, varying effector/target cell ratio) was “recognize and lyse HLA A2-matched EBV-BCL in a dose dependent fashion”.
For `CC(C)C[C@H](NC(=O)[C@H](C)NC(=O)[C@H](CC(C)C)NC(=O)[C@@H](N)CC(C)C)C(=O)N[C@@H](CC(C)C)C(=O)N[C@@H](CO)C(=O)N[C@@H](CS)C(=O)N[C@@H](CC(C)C)C(=O)N[C@H](C(=O)N[C@H](C(=O)O)C(C)C)[C@@H](C)O` [SEQ ID NO:2], the “peptide specific cytotoxic activity %” value ([1]; subject C-2, 2 weeks, E/T 80) was 29%, the “peptide specific cytotoxic activity %” value ([1]; subject C-2, 3 weeks, E/T 25) was 37% and the “peptide specific cytotoxic activity %” value ([1]; subject C-2, 4 weeks, E/T 7) was 33%. The “peptide specific cytotoxic activity %” value ([1]; subject C-2, 4 weeks, E/T 21) was 64%, the “peptide specific cytotoxic activity %” value ([1]; subject C-2, 4 weeks, E/T 64) was 81% and the “peptide specific cytotoxic activity %” value ([1]; subject C-2, 5 weeks, E/T 2) was 24%. For the same molecule, the “peptide specific cytotoxic activity %” value ([1]; subject C-2, 5 weeks, E/T 6) was 57%, the “peptide specific cytotoxic activity %” value ([1]; subject C-2, 5 weeks, E/T 18) was 60% and the “peptide specific cytotoxic activity %” value ([1]; subject C-3, 2 weeks, E/T 80) was 19%. For the same molecule, the “peptide specific cytotoxic activity %” value ([1]; subject C-3, 3 weeks, E/T 40) was 18%, the “peptide specific cytotoxic activity %” value ([1]; subject C-3, 4 weeks, E/T 4) was 20% and the “peptide specific cytotoxic activity %” value ([1]; subject C-3, 4 weeks, E/T 11) was 37%. The “peptide specific cytotoxic activity %” value ([1]; subject C-3, 4 weeks, E/T 33) was 60%, the “peptide specific cytotoxic activity %” value ([1]; subject C-3, 5 weeks, E/T 3) was 35% and the “peptide specific cytotoxic activity %” value ([1]; subject C-3, 5 weeks, E/T 10) was 52%. For the same molecule, the “peptide specific cytotoxic activity %” value ([1]; subject C-3, 5 weeks, E/T 30) was 76%.
